Results as given in patent US10485803B2, “Pyrimidine compounds as JAK kinase inhibitors” (THERAVANCE BIOPHARMA R&D IP, LLC, priority 2016, dated 2019).
“Also recorded” adds a separate entry of the source. Read-outs that look alike come from different tables or passages of the source.

Columns and labels:
Tyk2 = Tyk2 (Homo sapiens (Human), UniProt P29597); test: LanthaScreen JAK biochemical assay, Tyk2
Method: (§1) A panel of four LanthaScreen JAK biochemical assays (JAK1, 2, 3 and Tyk2) were carried in a common kinase reaction buffer (50 mM HEPES, pH 7.5, 0.01% Brij-35, 10 mM MgCl2, and 1 mM EGTA). Recombinant GST-tagged JAK enzymes and a GFP-tagged STAT1 peptide substrate were obtained from Life Technologies.
(§2) Serially diluted compounds were pre-incubated with each of the four JAK enzymes and the substrate in white 384-well microplates (Corning) at ambient temperature for 1 h. ATP was subsequently added to initiate the kinase reactions in 10 μl total volume, with 1% DMSO. […] The plates were allowed to incubate at ambient temperature for 1 h before being read on the EnVision reader (Perkin Elmer).
(§3) For dose-response analysis, percent inhibition data were plotted vs. compound concentrations, and IC50 values were determined from a 4-parameter robust fit model with the Prism software (GraphPad Software). Results were expressed as pIC50 (negative logarithm of IC50) and subsequently converted to pKi (negative logarithm of dissociation constant, Ki) using the Cheng-Prusoff equation.

[1] = test system: oxazolone-induced colitis; test: Mouse model of oxazolone-induced colitis; assay type: in vivo, BALB/C mice; settings: mice, PO, 1, 3, and/or 10 mg/kg BID
Method: Oxazolone-induced colitis is an experimental model that has a histological resemblance to human ulcerative colitis (Heller et al. […], 2002, 17, 629-638). Adult BALB/C mice from Harlan were used in the assay. On day 1, animals were lightly anesthetized with isoflurane and the hairs between the shoulder were carefully removed before oxazolone (4%, 150 μL, 4:1 acetone: olive oil formulation) or vehicle solution was slowly applied for skin sensitization. Seven days after skin sensitization, the mice were fasted overnight, anesthetized with isoflurane inhalation, and a 1 mL syringe equipped with a 3.5-F catheter, filled with oxazolone solution, was inserted carefully about 4 cm into the colon of the mouse. Following insertion, 50 μL of the oxazolone solution (1%, 1:1 ethanol:water formulation) was injected very slowly (over 30 sec using an injection pump) into the colon. The catheter was removed and the mice were held vertically (head down) for 2 min to ensure that the entire oxazolone solution remained inside the colon. Drug treatment (PO, BID or TID) or vehicle was initiated a day prior to the oxazolone intrarectal (IR) challenge. Two-day post oxazolone intrarectal challenge, the Disease Activity Index (DAI) was assessed by treatment-blinded experimenters for each mouse according to the criteria score: stool consistency score (0, normal; 2, loose; 4, diarrhea), gross bleeding score (0, absence; 2, blood tinged; 4, presence), and weight loss score (0, none; 1, 1%-5%; 2, 5%-10%; 3, 10%-20%; 4, more than 20%); DAI=average of (stool consistency score+gross bleeding score+weight loss score).

JAK3 = JAK3 (Homo sapiens (Human), UniProt P52333); test: LanthaScreen JAK biochemical assay, JAK3
Sequence of JAK3 (P52333 whole entry): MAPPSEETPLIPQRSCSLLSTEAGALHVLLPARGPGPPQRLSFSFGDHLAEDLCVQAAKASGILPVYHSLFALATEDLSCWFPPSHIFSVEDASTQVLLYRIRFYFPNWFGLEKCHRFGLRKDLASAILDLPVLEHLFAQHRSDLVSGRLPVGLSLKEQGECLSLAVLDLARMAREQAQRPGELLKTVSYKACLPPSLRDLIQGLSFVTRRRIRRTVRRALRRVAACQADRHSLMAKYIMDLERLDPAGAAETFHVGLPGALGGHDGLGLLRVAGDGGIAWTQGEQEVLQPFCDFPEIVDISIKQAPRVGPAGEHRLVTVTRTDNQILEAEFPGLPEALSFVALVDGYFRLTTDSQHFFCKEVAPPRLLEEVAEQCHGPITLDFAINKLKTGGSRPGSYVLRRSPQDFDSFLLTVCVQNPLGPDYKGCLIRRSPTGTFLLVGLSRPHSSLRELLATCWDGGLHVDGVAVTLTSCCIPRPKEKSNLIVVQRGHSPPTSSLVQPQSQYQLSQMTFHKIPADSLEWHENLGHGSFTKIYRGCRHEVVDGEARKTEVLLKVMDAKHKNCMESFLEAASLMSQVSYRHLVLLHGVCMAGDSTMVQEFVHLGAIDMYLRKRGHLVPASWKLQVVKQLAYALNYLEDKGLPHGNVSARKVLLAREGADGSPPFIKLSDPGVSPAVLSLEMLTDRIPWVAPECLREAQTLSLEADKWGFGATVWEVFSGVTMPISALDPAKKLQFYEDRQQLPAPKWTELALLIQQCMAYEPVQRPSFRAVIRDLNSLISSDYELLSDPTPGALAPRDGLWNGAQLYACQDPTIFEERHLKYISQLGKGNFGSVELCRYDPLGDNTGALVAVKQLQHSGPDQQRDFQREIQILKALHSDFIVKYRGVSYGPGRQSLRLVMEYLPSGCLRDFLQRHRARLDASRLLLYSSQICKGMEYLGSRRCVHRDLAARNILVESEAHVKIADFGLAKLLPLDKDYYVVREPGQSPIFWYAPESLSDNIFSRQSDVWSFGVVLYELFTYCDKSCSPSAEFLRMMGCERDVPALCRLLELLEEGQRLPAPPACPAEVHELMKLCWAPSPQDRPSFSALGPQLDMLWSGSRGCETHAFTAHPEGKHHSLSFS
Method: as §1, §2, §3

JAK2 = JAK2 (Homo sapiens (Human), UniProt O60674); test: LanthaScreen JAK biochemical assay, JAK2
Sequence of JAK2 (O60674 whole entry): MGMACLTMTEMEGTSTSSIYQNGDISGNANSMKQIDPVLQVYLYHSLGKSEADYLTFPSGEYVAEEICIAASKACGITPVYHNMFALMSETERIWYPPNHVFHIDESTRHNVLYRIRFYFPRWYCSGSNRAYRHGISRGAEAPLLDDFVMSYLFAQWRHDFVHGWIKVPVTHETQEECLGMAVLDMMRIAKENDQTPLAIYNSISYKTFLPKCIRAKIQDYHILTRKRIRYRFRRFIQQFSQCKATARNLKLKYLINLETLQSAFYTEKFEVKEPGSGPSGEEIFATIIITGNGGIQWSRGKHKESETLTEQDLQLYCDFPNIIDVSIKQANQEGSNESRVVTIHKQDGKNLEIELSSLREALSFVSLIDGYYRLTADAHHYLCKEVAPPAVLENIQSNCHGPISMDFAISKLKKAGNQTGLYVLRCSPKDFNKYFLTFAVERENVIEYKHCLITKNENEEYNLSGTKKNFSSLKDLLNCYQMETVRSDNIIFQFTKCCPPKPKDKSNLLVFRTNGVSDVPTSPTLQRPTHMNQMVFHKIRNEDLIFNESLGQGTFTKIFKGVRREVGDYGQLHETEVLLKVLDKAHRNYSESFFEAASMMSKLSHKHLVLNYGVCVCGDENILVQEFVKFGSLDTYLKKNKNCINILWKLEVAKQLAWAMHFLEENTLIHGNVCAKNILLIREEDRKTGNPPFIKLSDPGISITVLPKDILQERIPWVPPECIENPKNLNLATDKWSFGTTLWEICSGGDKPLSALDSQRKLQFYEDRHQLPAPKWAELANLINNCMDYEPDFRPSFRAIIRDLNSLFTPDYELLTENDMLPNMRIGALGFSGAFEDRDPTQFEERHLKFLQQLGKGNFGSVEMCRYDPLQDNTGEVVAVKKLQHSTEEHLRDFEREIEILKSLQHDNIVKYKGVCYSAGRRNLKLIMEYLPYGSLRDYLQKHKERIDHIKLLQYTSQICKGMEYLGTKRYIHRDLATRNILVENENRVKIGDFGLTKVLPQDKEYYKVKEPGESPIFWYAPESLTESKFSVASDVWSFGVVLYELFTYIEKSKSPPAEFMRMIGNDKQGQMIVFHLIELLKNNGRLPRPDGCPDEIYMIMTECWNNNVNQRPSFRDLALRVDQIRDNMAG
Method: as §1, §2, §3

[2] = Determination of absorption in cannulated rats; assay type: in vivo, Sprague Dawley rats; settings: rat, oral vs IV dose
Method: Oral bioavailability (F %), fraction absorbed (Fa%) and fraction escaping hepatic clearance (Fh%) were determined in Sprague Dawley rats from the following two studies:
(1) Pharmacokinetics in rats following an IV dose of test compound: Following IV dosing, plasma samples were typically collected from 0-6 hr. Drug levels were determined using an LC-MS-MS method. The resulting drug levels were used to compute the IV pharmacokinetic parameters: AUC IV and Dose IV.
(2) Rats that have been cannulated in their portal vein (PV) and also in their jugular vein (JV) were dosed orally with test compound. Following oral dosing, plasma samples were typically collected from 0-6 hr from both the portal vein and the jugular vein. Drug levels were determined using an LC-MS-MS method. The resulting drug levels were used to compute the following pharmacokinetic parameters: AUC PO PV, AUC PO JV, and Dose PO.
Using data derived from the above studies, the oral bioavailability F %, and the quantities Fa% and Fh% were calculated from the following formulas: F%=(AUC PO JV/AUC IV)*(Dose IV/Dose PO)*100 Fa%=(AUC PO PV/AUC IV)*(Dose IV/Dose PO)*100 Fh%=AUC PO JV/AUC PO PV • where: • AUC PO JV=Area under the curve following oral dose and plasma collected from the jugular vein • AUC PO PV=Area under the curve following oral dose and plasma collected from the portal vein • AUC IV=Area under the curve following an intravenous dose • Dose IV=Intravenous Dose in mg/kg • Dose PO=Oral Dose in mg/kg

JAK1 = JAK1 (Homo sapiens (Human), UniProt P23458); test: LanthaScreen JAK biochemical assay, JAK1
Sequence of JAK1 (P23458 whole entry): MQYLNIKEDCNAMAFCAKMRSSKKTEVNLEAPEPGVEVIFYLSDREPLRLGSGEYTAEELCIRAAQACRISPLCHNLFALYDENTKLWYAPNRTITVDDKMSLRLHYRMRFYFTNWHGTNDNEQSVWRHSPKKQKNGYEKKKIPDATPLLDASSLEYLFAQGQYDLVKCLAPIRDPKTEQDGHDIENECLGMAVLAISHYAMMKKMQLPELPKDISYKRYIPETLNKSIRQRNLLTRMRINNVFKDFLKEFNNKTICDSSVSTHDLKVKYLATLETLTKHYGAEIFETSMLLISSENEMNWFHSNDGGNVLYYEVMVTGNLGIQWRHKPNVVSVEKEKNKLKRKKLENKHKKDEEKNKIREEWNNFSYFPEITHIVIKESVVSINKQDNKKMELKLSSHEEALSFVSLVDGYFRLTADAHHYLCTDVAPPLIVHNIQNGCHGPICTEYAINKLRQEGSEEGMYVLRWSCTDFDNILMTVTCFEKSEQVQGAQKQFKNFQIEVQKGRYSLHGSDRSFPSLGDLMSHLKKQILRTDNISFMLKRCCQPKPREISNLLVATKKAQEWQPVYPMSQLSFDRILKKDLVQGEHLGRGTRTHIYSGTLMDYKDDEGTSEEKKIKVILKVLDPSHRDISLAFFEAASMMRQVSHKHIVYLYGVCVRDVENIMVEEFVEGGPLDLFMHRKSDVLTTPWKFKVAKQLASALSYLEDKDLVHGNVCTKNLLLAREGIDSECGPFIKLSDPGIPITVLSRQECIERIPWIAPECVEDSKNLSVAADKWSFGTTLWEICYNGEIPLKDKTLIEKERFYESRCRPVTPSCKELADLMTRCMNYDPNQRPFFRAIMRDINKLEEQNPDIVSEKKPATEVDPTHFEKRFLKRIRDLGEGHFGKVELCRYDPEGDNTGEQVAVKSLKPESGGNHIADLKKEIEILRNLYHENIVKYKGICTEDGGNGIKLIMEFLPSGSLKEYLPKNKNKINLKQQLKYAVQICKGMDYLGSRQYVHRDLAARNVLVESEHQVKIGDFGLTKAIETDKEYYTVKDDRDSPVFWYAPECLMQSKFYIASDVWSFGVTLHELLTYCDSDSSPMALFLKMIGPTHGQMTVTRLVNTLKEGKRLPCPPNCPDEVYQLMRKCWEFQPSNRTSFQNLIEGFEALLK
Method: as §1, §2, §3

[3] = test system: IL-13 induced STAT6 phosphorylation in HT-29 human colorectal adenocarcinoma cells; test: Cellular JAK potency assay: inhibition of IL-13; assay type: cell-based; settings: HT-29 cells
Method: The potency of test compounds for inhibition of the JAK-dependent cytokine interleuken-13 (IL-13) was assessed by measuring IL-13 (IL-13, R&D Systems) induced STAT6 phosphorylation in HT-29 human colorectal adenocarcinoma cells (ATCC).
The anti-STAT6 antibody (Cell Signaling Technologies) was conjugated to AlphaScreen acceptor beads (Perkin Elmer), while the anti-pSTAT6 (pTyr641) antibody (Cell Signaling Technologies) was biotinylated using EZ-Link Sulfo-NHS-Biotin (Thermo Scientific).
HT-29 cells were grown at 37° C. in a 5% CO2 humidified incubator in McCoy's 5a Modified medium (ATCC) supplemented with 10% FBS (Hyclone), 100 U/mL penicillin, 100 μg/mL streptomycin (Life Technologies), and 2 mM GlutaMAX (Life Technologies). On day 1 of the assay, cells were seeded at a 7,500 cells/well density in white poly-D-lysine-coated 384-well plates (Corning) with 25 μL medium, and were allowed to adhere overnight in the incubator. On day 2 of the assay, the medium was removed and replaced with 12 μL of assay buffer (Hank's Balanced Salt Solution/HBSS, 25 mM HEPES, and 1 mg/ml bovine serum albumin/BSA) containing dose-responses of test compounds. Compounds were serially diluted in DMSO and then diluted another 1000-fold in media to bring the final DMSO concentration to 0.1%. Cells were incubated with test compounds at 37° C. for 1 h, and followed by the addition of 12 μl of pre-warmed IL-13 (12 ng/ml in assay buffer) for stimulation. After incubating at 37° C. for 30 min, the assay buffer (containing compound and IL-13) was removed, and 10 μl of cell lysis buffer (25 mM HEPES, 0.1% SDS, 1% NP-40, 5 mM MgCl2, 1.3 mM EDTA, 1 mM EGTA, and supplement with Complete Ultra mini protease inhibitors and PhosSTOP from Roche Diagnostics). The plates were shaken at ambient temperature for 30 min before the addition of detection reagents. A mixture of biotin-anti-pSTAT6 and anti-STAT6 conjugated acceptor beads was added first and incubated at ambient temperature for 2 h, followed by the addition of streptavidin conjugated donor beads (Perkin Elmer). After a minimum of 2 h incubation, the assay plates were read on the EnVision plate reader.
Results were expressed as the negative logarithm of the IC50 value, pIC50.

[4] = Colon pharmacokinetics in rats; assay type: in vivo, Sprague Dawley rats; settings: rat, upon oral administration, dose not stated
[5] = test system: mouse splenic NK, B and T cells; settings: in vivo; for treatment effect on B and T cell populations: po
Method: Depletion of mouse splenic cells is an experimental model of immunosuppression (Kudlacz et al., Am. J. of Transplantation, 2004, 4, 51-57). The compound of Example 2 was assessed in the mouse splenic cell model following the same treatment paradigm as that used in the oxazolone-induced colitis model (Assay 8).
The compound (1, 10 and 100 mg/kg, BID) and tofacitinib (30 and 60 mg/kg, BID) as a positive control were dosed orally for three days to naïve mice. Spleens were harvested 1 h post last dose and crushed immediately for cell subtype staining. Prior to fixation, fluorophore-labelled antibodies for CD19 (FITC; B cells), CD3e (PE; pan T cells) and DX5 (APC; NK cells) were incubated with splenocyte samples from each animal to allow for simultaneous, multiple subtype % analysis on the flow cytometer. The number of total spleen cells for each animal was measured by Scepter™ 2.0 Handheld Automated Cell Counter.
The absolute number of lymphocyte subtype population (e.g., splenic B, T and NK cells) was calculated from the percentage of each subtype times total spleen cells for each animal. A one way ANOVA, with Dunnett's post hoc test, was used to compare the splenic lymphocytes number of the vehicle and test compound groups. The a level was set at p<0.05. Data were presented as the mean±SEM for each group.

[6] = test system: TPA-induced increase in ear thickness; test: Topical TPA-induced irritant contact dermatitis model in mice; assay type: in vivo, Balb/c mice; settings: 6 hours after TPA
Method: The objective of this assay is to assess the anti-inflammatory effect in a model of acute dermatitis of test compounds being studied for cutaneous inflammatory conditions such as atopic dermatitis (Dong et al., J Pharmacol Exp Ther, 2013, 344, 436-446).
Topical dermal application of phorbol ester 12-O-tetradecanoylphorbol-13-acetate (TPA) in mice causes an inflammatory response that is characterized by edema and neutrophil influx at the early phase (2-24 h) and by epidermal cell proliferation at the later phase (24-48 h) (Griffiths et al., Agents and Actions, 1988, 25, 344-351). Female Balb/c mice were topically administered with either vehicle (1:7 DMSO:acetone) or 20 μL of a solution of TPA (2.5 μg) in vehicle on each ear. At 30 min before and 15 min after TPA administration, either vehicle or the compound of Example 2 at doses of 30, 100, 300, 1000, and 3000 μg in vehicle was applied topically to each ear. The degree of inflammation was assessed as the change in ear thickness at 6 hours after TPA application.

[7] = in vivo
From the text: The objective of this assay was to determine the epidermal, dermal and plasma pharmacokinetics of a test compound following a 24 hr exposure to intact mouse or mini-pig skin.
Twenty-four hours prior to dosing the hair was shaved from the back of 25 g male Balb/c mice exposing an area at of least 6 cm^2 (about 10% of body surface) and, in a separate experiment, of 10 kg Gottingen mini-pigs exposing an area of at least 450 cm^2 (about 10% of body surface). […] The skin was covered with an adhesive cover to prevent loss of compound to the cage or bedding.
Following 24 h exposure, the backs were gently washed with soap and water to remove non-absorbed drug and patted dry. Immediately following this washing, blood was drawn by cardiac puncture from the mice and via venipuncture from the mini-pigs. The outer skin (stratum corneum) was then removed by adhesive tape stripping. Upon exposure of the epidermis a 0.5 cm punch biopsy was taken. The epidermis and dermis were quickly separated, weighed and snap frozen.

Sequence of Tyk2 (P29597 whole entry): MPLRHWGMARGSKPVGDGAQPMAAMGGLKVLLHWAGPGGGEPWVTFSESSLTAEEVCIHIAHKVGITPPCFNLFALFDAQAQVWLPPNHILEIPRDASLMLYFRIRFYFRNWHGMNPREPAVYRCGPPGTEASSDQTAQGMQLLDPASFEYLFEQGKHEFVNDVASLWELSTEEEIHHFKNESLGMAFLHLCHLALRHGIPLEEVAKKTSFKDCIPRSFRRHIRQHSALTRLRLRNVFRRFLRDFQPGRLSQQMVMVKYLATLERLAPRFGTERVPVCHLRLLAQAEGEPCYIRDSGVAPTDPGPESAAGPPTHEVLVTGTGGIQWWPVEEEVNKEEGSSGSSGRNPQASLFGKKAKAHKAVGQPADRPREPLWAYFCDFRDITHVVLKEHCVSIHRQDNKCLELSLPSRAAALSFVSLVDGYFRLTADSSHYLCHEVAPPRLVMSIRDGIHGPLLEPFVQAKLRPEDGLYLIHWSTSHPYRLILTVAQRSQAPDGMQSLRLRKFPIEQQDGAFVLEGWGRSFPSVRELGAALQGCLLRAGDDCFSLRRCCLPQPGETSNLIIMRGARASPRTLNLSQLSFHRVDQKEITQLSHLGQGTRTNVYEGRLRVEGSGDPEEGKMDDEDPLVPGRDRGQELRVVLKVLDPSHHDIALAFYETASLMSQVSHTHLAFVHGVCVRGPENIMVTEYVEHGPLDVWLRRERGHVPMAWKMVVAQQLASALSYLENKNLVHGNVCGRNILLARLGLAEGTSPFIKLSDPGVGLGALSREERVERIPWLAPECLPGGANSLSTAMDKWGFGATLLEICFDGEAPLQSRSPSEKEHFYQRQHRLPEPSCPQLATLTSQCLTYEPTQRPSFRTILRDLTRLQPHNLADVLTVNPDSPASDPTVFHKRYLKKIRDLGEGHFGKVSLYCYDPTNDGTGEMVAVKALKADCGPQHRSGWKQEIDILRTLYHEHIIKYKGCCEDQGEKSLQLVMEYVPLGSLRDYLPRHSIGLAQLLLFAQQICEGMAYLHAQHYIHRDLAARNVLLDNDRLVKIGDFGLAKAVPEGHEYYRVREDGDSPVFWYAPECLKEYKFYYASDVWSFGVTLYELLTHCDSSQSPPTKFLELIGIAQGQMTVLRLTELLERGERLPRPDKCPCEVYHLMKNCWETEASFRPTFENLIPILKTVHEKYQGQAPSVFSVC

SMILES: COc1cc(Nc2cc(CO)[nH]n2)nc(N(C)[C@@H]2C[C@H]3CC[C@@H](C2)N3S(=O)(=O)N2CC(C#N)C2)n1 [Example 1, 1-(((1R,3s,5S)-3-((4-((5-(Hydroxymethyl)-1H-pyrazol-3-yl)amino)-6-methoxypyrimidin-2-yl)(methyl)amino)-8-azabicyclo[3.2.1]octan-8-yl)sulfonyl)azetidine-3-carbonitrile]
- Tyk 2 (pKi) (Tyk2): B (B represents a pKi value between 9 and 10 (Ki between 1 nM and 0.1 nM))
- decrease in DAI score as compared with vehicle treated animals [1]: did not exhibit a statistically significant decrease
- JAK 3 (pKi) (JAK3): C (C represents a pKi value between 8 and 9 (Ki between 10 nM and 1 nM))
- JAK 2 (pKi) (JAK2): A (A represents a pKi value ≥10 (Ki≤0.1 nM))
- oral bioavailability (F %) ([2]; jugular vein): less than 5%
- absorption at the portal vein (Fa%) [2]: less than 25%
- JAK 1 (pKi) (JAK1): A (A represents a pKi value ≥10 (Ki≤0.1 nM))
- HT-29 (pIC50) [3]: B (B represents a pIC50 value between 6.7 and 7.5 (IC50 between 200 nM and 32 nM))

SMILES: COc1cc(Nc2cc(CO)[nH]n2)nc(N(C)[C@@H]2C[C@H]3CCC[C@@H](C2)N3S(=O)(=O)N2CC(C#N)C2)n1 [Example 2, 1-(((1R,3s,5S)-3-((4-((5-(Hydroxymethyl)-1H-pyrazol-3-yl)amino)-6-methoxypyrimidin-2-yl)(methyl)amino)-9-azabicyclo[3.3.1]nonan-9-yl)sulfonyl)azetidine-3-carbonitrile]
- decrease in DAI score as compared with vehicle treated animals [1]: demonstrated activity; also recorded: statistically significant decrease
- ratio of exposure in the colon to exposure in plasma [4]: greater than 250
- absorption at the portal vein (Fa%) [2]: less than 25%
- effect of immunosuppression [5]: minimal effect of immunosuppression
- treatment effect on B and T cell populations [5]: No treatment effect
- inhibition of TPA-induced increase in ear thickness ([6]; topical 30-3000 μg per ear): dose- and concentration-dependent effect; also recorded: dose- and concentration-dependent inhibition
- maximum statistically significant inhibition of TPA-induced increase in ear thickness ([6]; topical, 1000 μg dose): 41%
- duration of sustained dermal levels ([7]; Gottingen, minipig): at least 7 days
- duration of sustained dermal levels ([7]; male, Balb/c, mouse): at least 2 days

SMILES: C[C@@H]1CCN(C(=O)CC#N)C[C@@H]1N(C)c1ncnc2[nH]ccc12 [tofacitinib, reference compound]
- treatment effect on B and T cell populations [5]: No treatment effect
